In patent publication US10745361B2, “Piperazine derivatives having multimodal activity against pain” (ESTEVE PHARMACEUTICALS, S.A., priority 2013, dated 2020):

Molecular target: human σ1 receptor and human μ-opioid receptor
Assay: Human σ1 receptor radioligand assay and human μ-opioid receptor radioligand assay (μ and σ1 dual binding)
Parameters: key to μ and σ1 dual binding: +: Both Ki-μ and Ki-σ1>=500 nM; ++: One K, <500 nM while the other K, is >=500 nM; +++: Both Ki-μ and Ki-σ1<500 nM; ++++: Both Ki-μ and Ki-σ1<100 nM
Settings: one class for both Ki: σ1 ([3H](+)-pentazocine, transfected HEK-293 membranes) and μ-opioid ([3H]-DAMGO, transfected CHO-K1 membranes)
Method: Human σ1 Receptor Radioligand Assay
To investigate binding properties of σ1 receptor ligands to human σ1 receptor, transfected HEK-293 membranes and [^3H](+)-pentazocine (Perkin Elmer, NET-1056), as the radioligand, were used. The assay was carried out with 7 μg of membrane suspension, 5 nM of [^3H](+)-pentazocine in either absence or presence of either buffer or 10 μM Haloperidol for total and non-specific binding, respectively. Binding buffer contained Tris-HCl 50 mM at pH 8. Plates were incubated at 37° C. for 120 minutes. After the incubation period, the reaction mix was then transferred to MultiScreen HTS, FC plates (Millipore), filtered and plates were washed 3 times with ice-cold 10 mM Tris-HCL (pH7.4). Filters were dried and counted at approximately 40% efficiency in a MicroBeta scintillation counter (Perkin-Elmer) using EcoScint liquid scintillation cocktail
Human μ-Opioid Receptor Radioligand Assay
To investigate binding properties of p-opioid receptor ligands to human p-opioid receptor, transfected CHO-K1 cell membranes and [^3H]-DAMGO (Perkin Elmer, ES-542-C), as the radioligand, were used. The assay was carried out with 20 μg of membrane suspension, 1 nM of [^3H]-DAMGO in either absence or presence of either buffer or 10 μM Naloxone for total and non-specific binding, respectively. Binding buffer contained Tris-HCl 50 mM, MgCl2 5 mM at pH 7.4. Plates were incubated at 27° C. for 60 minutes. After the incubation period, the reaction mix was then transferred to MultiScreen HTS, FC plates (Millipore), filtered and plates were washed 3 times with ice-cold 10 mM Tris-HCL (pH 7.4). Filters were dried and counted at approximately 40% efficiency in a MicroBeta scintillation counter (Perkin-Elmer) using
EcoScint liquid scintillation cocktail.
The following scale as been adopted for representing the binding to the σ1 receptor and the μ-opiod receptor expressed as Ki: • + Both Ki-μ and Ki-σ1>=500 nM • ++ One K, <500 nM while the other K, is >=500 nM • +++ Both Ki-μ and Ki-σ1<500 nM • ++++ Both Ki-μ and Ki-σ1<100 nM

Structure (SMILES)	Ki [µM]	μ and σ1 dual binding
CC(C)S(=O)(=O)Nc1cccc(N2CCN(Cc3cn(-c4ccccc4)nn3)CC2)n1 [Example 42, N-(6-(4-((1-phenyl-1H-1,2,3-triazol-4-yl)methyl)piperazin-1-yl)pyridin-2-yl)propane-2-sulfonamide]	< 0.5	–
CC(C)S(=O)(=O)Nc1cccc(N2CCN(Cc3cn(-c4ccc(F)c(F)c4)nn3)CC2)n1 [Example 49, N-(6-(4-((1-(3,4-difluorophenyl)-1H-1,2,3-triazol-4-yl)methyl)piperazin-1-yl)pyridin-2-yl)propane-2-sulfonamide]	–	++
CS(=O)(=O)Nc1cccc(N2CC3CN(Cc4cn(-c5ccccc5)nn4)CC3C2)c1 (stereo not drawn) [Example 13, N-(3-(5-((1-phenyl-1H-1,2,3-triazol-4-yl)methyl)hexahydropyrrolo[3,4-c]pyrrol-2(1H)-yl)phenyl)methanesulfonamide]	< 0.5	–
CC(C)S(=O)(=O)Nc1cccc(N2CCN(Cc3cn(-c4c(F)cccc4F)nn3)CC2)n1 [Example 48, N-(6-(4-((1-(2,6-difluorophenyl)-1H-1,2,3-triazol-4-yl)methyl)piperazin-1-yl)pyridin-2-yl)propane-2-sulfonamide]	–	++
CN(c1cccc(NS(C)(=O)=O)c1)C1CN(Cc2cn(-c3ccccc3)nn2)C1 [Example 15, N-(3-(methyl(1-((1-phenyl-1H-1,2,3-triazol-4-yl)methyl)azetidin-3-yl)amino)phenyl)methanesulfonamide]	< 0.5	–
CS(=O)(=O)Nc1cccc(N2CCN(Cc3cnn(-c4ccccc4)c3)CC2)c1 [Example 33, N-(3-(4-((1-phenyl-1H-pyrazol-4-yl)methyl)piperazin-1-yl)phenyl)methanesulfonamide]	< 0.1	–
CC(C)S(=O)(=O)Nc1ccc(Cl)c(N2CCN(Cc3cn(-c4ccccc4)nn3)CC2)n1 [Example 52, N-(5-chloro-6-(4-((1-phenyl-1H-1,2,3-triazol-4-yl)methyl)piperazin-1-yl)pyridin-2-yl)propane-2-sulfonamide]	< 0.5	–
CC(C)S(=O)(=O)Nc1cccc(N2CC3CN(Cc4cn(Cc5ccccn5)nn4)CC3C2)n1 (stereo not drawn) [Example 55, N-(6-(5-((1-(pyridin-2-ylmethyl)-1H-1,2,3-triazol-4-yl)methyl)hexahydropyrrolo[3,4-c]pyrrol-2(1H)-yl)pyridin-2-yl)propane-2-sulfonamide]	–	++
CS(=O)(=O)Nc1cccc(N2CCN(Cc3cnn(Cc4ccccc4)c3)CC2)c1 [Example 34, N-(3-(4-((1-benzyl-1H-pyrazol-4-yl)methyl)piperazin-1-yl)phenyl)methanesulfonamide]	< 0.5	–
CC(C)S(=O)(=O)Nc1cccc(N2CCCN(Cc3cn(-c4ccccc4)nn3)CC2)n1 [Example 57, N-(6-(4-((1-phenyl-1H-1,2,3-triazol-4-yl)methyl)-1,4-diazepan-1-yl)pyridin-2-yl)propane-2-sulfonamide]	< 0.1	–
O=S(=O)(Nc1cccc(N2CCN(Cc3cn(-c4ccc(C(F)(F)F)cc4F)nn3)CC2)n1)C1CC1 [Example 69, N-(6-(4-((1-(2-fluoro-4-(trifluoromethyl)phenyl)-1H-1,2,3-triazol-4-yl)methyl)piperazin-1-yl)pyridin-2-yl)cyclopropanesulfonamide]	–	++
Oc1cccc(N2CCN(Cc3cnn(-c4ccccc4)c3)CC2)c1 [Example 37, 3-(4-((1-phenyl-1H-pyrazol-4-yl)methyl)piperazin-1-yl)phenol]	< 0.1	–
CC(C)S(=O)(=O)Nc1cccc(N2CCN(Cc3cnn(-c4ccccn4)n3)CC2)c1 [Example 24, N-(3-(4-((2-(pyridin-2-yl)-2H-1,2,3-triazol-4-yl)methyl)piperazin-1-yl)phenyl)propane-2-sulfonamide]	≥ 0.5	–
O=S(=O)(Nc1cccc(N2CCN(Cc3cn(-c4ncccc4F)nn3)CC2)n1)C1CC1 [Example 64, N-(6-(4-((1-(3-fluoropyridin-2-yl)-1H-1,2,3-triazol-4-yl)methyl)piperazin-1-yl)pyridin-2-yl)cyclopropanesulfonamide]	–	++
O=S(=O)(Nc1cccc(N2CCN(Cc3cn(-c4ccccc4)nn3)CC2)c1)C(F)(F)F [Example 18, 1,1,1-trifluoro-N-(3-(4-((1-phenyl-1H-1,2,3-triazol-4-yl)methyl)piperazin-1-yl)phenyl)methanesulfonamide]	≥ 0.5	–
CS(=O)(=O)Nc1cccc(N2CCN(Cc3cn(-c4ccccc4)nn3)CC2)c1 [Example 4, N-(3-(4-((1-phenyl-1H-1,2,3-triazol-4-yl)methyl)piperazin-1-yl)phenyl)methanesulfonamide]	< 0.5	–
CC(C)(C)NS(=O)(=O)c1cccc(N2CCN(Cc3cn(-c4ccccc4)nn3)CC2)c1 [Example 32, N-tert-butyl-3-(4-((1-phenyl-1H-1,2,3-triazol-4-yl)methyl)piperazin-1-yl)benzenesulfonamide]	–	++
CC(C)S(=O)(=O)Nc1cccc(N2CCN(Cc3cn(-c4cc(F)ccn4)nn3)CC2)c1 [Example 22, N-(3-(4-((1-(4-fluoropyridin-2-yl)-1H-1,2,3-triazol-4-yl)methyl)piperazin-1-yl)phenyl)propane-2-sulfonamide]	–	++
CS(=O)(=O)Nc1cccc(N2[C@@H]3CC[C@H]2CN(Cc2cn(-c4ccccc4)nn2)C3)c1 [Example 23, N-(3-((1R,5S)-3-((1-phenyl-1H-1,2,3-triazol-4-yl)methyl)-3,8-diazabicyclo[3.2.1]octan-8-yl)phenyl)methanesulfonamide]	–	++
CS(=O)(=O)Nc1cccc(N2CCN(Cc3cn(-c4ccc(C(F)(F)F)nc4)nn3)CC2)c1 [Example 8, N-(3-(4-((1-(6-(trifluoromethyl)pyridin-3-yl)-1H-1,2,3-triazol-4-yl)methyl)piperazin-1-yl)phenyl)methanesulfonamide]	≥ 0.5	–
Oc1cccc(N2CCN(Cc3cn(Cc4ccccc4)nn3)CC2)c1 [Example 6, 3-(4-((1-benzyl-1H-1,2,3-triazol-4-yl)methyl)piperazin-1-yl)phenol]	–	++
CC(C)S(=O)(=O)Nc1cccc(N2CC3CN(Cc4cn(Cc5ccccc5)nn4)CC3C2)n1 (stereo not drawn) [Example 54, N-(6-(5-((1-benzyl-1H-1,2,3-triazol-4-yl)methyl)hexahydropyrrolo[3,4-c]pyrrol-2(1H)-yl)pyridin-2-yl)propane-2-sulfonamide]	–	++
CC(C)S(=O)(=O)Nc1cccc(N2CCN(Cc3cn(-c4ccccn4)cn3)CC2)n1 [Example 62, N-(6-(4-((1-(pyridin-2-yl)-1H-imidazol-4-yl)methyl)piperazin-1-yl)pyridin-2-yl)propane-2-sulfonamide]	< 0.5	–
CCS(=O)(=O)Nc1cccc(N2CCN(Cc3cn(-c4ccccc4)nn3)CC2)c1 [Example 10, N-(3-(4-((1-phenyl-1H-1,2,3-triazol-4-yl)methyl)piperazin-1-yl)phenyl)ethanesulfonamide]	< 0.5	–
CC(C)S(=O)(=O)Nc1cccc(N2CCN(Cc3cn(-c4ncccc4F)nn3)CC2)c1 [Example 21, N-(3-(4-((1-(3-fluoropyridin-2-yl)-1H-1,2,3-triazol-4-yl)methyl)piperazin-1-yl)phenyl)propane-2-sulfonamide]	–	++
Oc1cccc(N2CCN(Cc3cn(-c4ccccc4)nn3)CC2)c1 [Example 5, 3-(4-((1-phenyl-1H-1,2,3-triazol-4-yl)methyl)piperazin-1-yl)phenol]	–	++
CC(C)S(=O)(=O)Nc1cccc(N2CCN(Cc3cn(-c4cccc(F)c4)nn3)CC2)c1 [Example 27, N-(3-(4-((1-(3-fluorophenyl)-1H-1,2,3-triazol-4-yl)methyl)piperazin-1-yl)phenyl)propane-2-sulfonamide]	< 0.1	–
Cc1ccc(F)c(-n2cc(CN3CCN(c4cccc(NS(=O)(=O)C5CC5)n4)CC3)nn2)c1 [Example 66, N-(6-(4-((1-(2-fluoro-5-methylphenyl)-1H-1,2,3-triazol-4-yl)methyl)piperazin-1-yl)pyridin-2-yl)cyclopropanesulfonamide]	–	++
O=S(=O)(Nc1cccc(N2CCN(Cc3cn(-c4ccccc4)cn3)CC2)n1)C1CC1 [Example 70, N-(6-(4-((1-phenyl-1H-imidazol-4-yl)methyl)piperazin-1-yl)pyridin-2-yl)cyclopropanesulfonamide]	< 0.5	–
CC(C)S(=O)(=O)Nc1cccc(N2CCN(Cc3cn(-c4ccccc4F)nn3)CC2)n1 [Example 43, N-(6-(4-((1-(2-fluorophenyl)-1H-1,2,3-triazol-4-yl)methyl)piperazin-1-yl)pyridin-2-yl)propane-2-sulfonamide]	–	++
